What was measured:
[1] = target: erythrocyte chloride channels; assay: Cl- conductance (GCl) from conductive netfluxes of Cl- and membrane potentials in suspensions of normal erythrocytes; format: cell-based, Human; conditions: suspension of normal erythrocytes; for Kd: read-out: KD-value for block of GCl
Description: (§1) The compounds of the present invention are potent blockers of chloride channels in normal as well as sickle cell erythrocytes.
(§2) All dose-response experiments were therefore performed by concomitant measurements of conductive neffluxes of Cl^− (JCl) and membrane potentials (Vm) in suspensions of erythrocytes (Bennekou, P. and Christophersen, P. (1986), Flux ratio of Valinomycin—Mediated K^+ Fluxes across the Human Red Cell Membrane in the presence of the Protronophore CCCP. J. Membrane Biol. 93, 221-227. ). The membrane Cl^− conductances (GCl) were calculated by the following equation (Hodgkin, A. L. and Huxley, A. F. (1952) The components of membrane conductance in the giant axon of Loligo. J. Physiol. Lond. 116, 449-472): [formula]
(§3) where F is the Faraday constant, ECl is the Nernst potential for the Cl-ion.

bone resorbtion = conditions: in vitro; cited from earlier work
bone degration = conditions: growing yound rats; cited from earlier work
proton pump = conditions: cited from earlier work
[2] = tested on: erythrocyte chloride channels (homozygoteous sickle cell erythrocytes); assay: Cl- conductance (GCl) in sickle cell erythrocytes; format: cell-based, Human; conditions: oxygenated as well as deoxygenated homozygoteous sickle cell erythrocytes
Description: as §1, §2, §3

erythrocytes = assay: Valinomycin induced cell volume loss, relative volume of packed cells; format: cell-based; conditions: valinomycin for 5 min; volume loss 26% without compound
Protocol: Inducing a massive water and salt loss (KCl) by addition the K^+-ionophore valinomycin to the suspension for 5 min reduced the cell volume by 26%.

sickle erythrocytes = assay: Deoxygenation induced permeability increase of sickle cells, extracellular K+-concentration vs time; format: cell-based; conditions: 10 μM
Description: (§4) Deoxygenation induced permeability increases of sickle cells were estimated by measuring the extracellular K^+-concentration vs time. […] The K^+ flux from oxygenated sickle erythrocytes was 2-3 times higher than from normal erythrocytes and these fluxes was accelerated 4-8 times upon deoxygenation.

mice = conditions: mouse, in vivo
Protocol: (§5) 3-Trifluoromethylphenyl-2-carboxyphenyl urea is non-toxic to mice and rats at concentrations up to 250 mg/kg i.p. and i.v.

rats = conditions: rat, in vivo
Protocol: as §5

Normal erythrocytes = assay: K+-flux from normal erythrocytes, extracellular K+-concentration vs time; format: cell-based; conditions: 10 μM
Description: as §4

## O=C(Nc1cccc(C(F)(F)F)c1)Nc1ccc(Br)cc1-c1nnn[nH]1 [3-Trifluoromethylphenyl-4-bromo-2-(5-tetrazolyl)phenyl Urea]
[1]
  Kd: 1900 nM

## CO/C1=C\C(C)=C\[C@@H](C)[C@@H](O)[C@@H](C)C/C(C)=C/C=C/[C@H](OC)[C@@H]([C@@H](C)[C@@H](O)[C@H](C)[C@@]2(O)C[C@@H](O)[C@H](C)[C@@H](C(C)C)O2)OC1=O [bafilomycin A1]
Bone resorbtion
  effect on bone resorbtion, pit formation: completely eliminates
Bone degration
  effect on bone degration: depresses
Proton pump
  block of the proton pump: extremely potent, reversible inhibitor

## CN(C)S(=O)(=O)c1ccc(-c2ccc(NC(=O)Nc3cccc(C(F)(F)F)c3)c(-c3nnn[nH]3)c2)cc1 [N-(3-Trifluoromethylphenyl)-N′-(4′-(N,N-dimethylsulfamoyl)-2-(1-H-tetrazol-5-yl)-4-biphenyl) urea]
other
  melting point: 258 to 260 °C
[1]
  Kd: 300 nM

## CC(=O)Nc1nnc(S(N)(=O)=O)s1 [acetacolamide]
Bone resorbtion
  effect on bone resorbtion, pit formation: effective

## O=C(Nc1cccc(C(F)(F)F)c1)Nc1ccccc1C(=O)O [N-3-Trifluoromethylphenyl-N′-2-carboxyphenyl Urea]
[2]
  block of GCl compared with normal erythrocytes: equipotently blocked
[1]
  block of GCl: more than 95%
  Kd: 1300 nM
erythrocytes
  cell volume loss in presence of compound: 7%
Sickle erythrocytes
  basal K+-flux from sickle erythrocytes: normalised
Sickle erythrocytes; deoxygenated sickle erythrocytes
  deoxygenation induced K+ flux component: nearly abolished
mice
  non-toxic dose: up to 250 mg/kg
rats
  non-toxic dose: up to 250 mg/kg
Normal erythrocytes
  effect on K+-fluxes of normal erythrocytes: insensitive

## COc1ccc2[nH]c([S+]([O-])Cc3ncc(C)c(OC)c3C)nc2c1 (centres unmarked) [omeprazol]
Proton pump
  block of the proton pump: ineffective
